The values below come from US20130252983A1, “ACTIVATING PHOSPHORYLATION SITE ON GLUTAMINASE C” (CORNELL UNIVERSITY, priority 2010, published 2013).

“Also recorded” adds a separate entry of the source.

In assay [1] the target is T1, mouse GAC (E. coli-expressed mouse ortholog of human GAC) (Mus musculus, UniProt D3Z7P3).
T1 construct: A plasmid encoding mouse GAC (residues 128-603) was cloned into the pET28a vector; His (N, cleaved yes); made in house; host or cells: E. coli (pET28a)
T1 sequence (D3Z7P3 128-603 isoform D3Z7P3-2): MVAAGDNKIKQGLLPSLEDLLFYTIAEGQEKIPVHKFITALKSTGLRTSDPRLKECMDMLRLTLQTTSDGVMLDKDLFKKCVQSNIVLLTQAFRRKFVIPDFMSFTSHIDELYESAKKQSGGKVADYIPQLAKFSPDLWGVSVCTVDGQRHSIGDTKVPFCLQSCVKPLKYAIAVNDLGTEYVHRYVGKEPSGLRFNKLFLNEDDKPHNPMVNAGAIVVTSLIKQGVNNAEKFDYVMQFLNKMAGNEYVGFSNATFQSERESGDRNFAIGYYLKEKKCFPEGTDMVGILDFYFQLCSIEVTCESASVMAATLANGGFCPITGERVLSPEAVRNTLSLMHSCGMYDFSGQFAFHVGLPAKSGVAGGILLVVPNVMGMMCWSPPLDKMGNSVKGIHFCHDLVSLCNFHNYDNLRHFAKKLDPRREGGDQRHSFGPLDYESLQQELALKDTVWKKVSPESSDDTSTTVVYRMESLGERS
Briefly: Recombinant glutaminase activity assay. The format is biochemical. The method, then:
100%=620 moles of glutamine hydrolyzed per minute per mole of enzyme. Data represent the average of 3 experiments (±s.d.). […] Following precipitation of the beads and re-suspension, the samples were analyzed by Western blotting with anti-V5 antibody. […] Data represent the average of 3 experiments (±s.d.). […] Data represent the average of 3 experiments (±s.d.). […] Data represent the average of 3 experiments (±s.d.). FIG. 3E NIH 3T3 cells transiently expressing Dbl were assayed for focus formation in the presence of 10 μM 968 alone or together with 7 mM dimethyl α-ketoglutarate. […] 100%=680 nM glutamine hydrolyzed per minute per 10^5 cells. Data are the average of 3 experiments (±s.d.). […] 100%=750 nM glutamine hydrolyzed per minute per 10^5 cells. Data represent the average of 3 experiments (±s.d.).
The activity of the E. coli-expressed recombinant mouse ortholog of human GAC were assayed in the presence of 0 ([…]), 10 (∇) or 20 (▪) μM 968 and inorganic phosphate in the form of dipotassium hydrogen phosphate. […] The data are plotted as GA activity as function of varying concentrations of glutamine or inorganic phosphate. The data are the average of 3 experiments and are plotted as mean±SEM.
Glutaminase activity assays were performed on recombinant enzyme as previously described (Kenny et al., “Bacterial Expression, Purification and Characterization of Rat Kidney-Type Mitochondrial Glutaminase,” Protein Expr. Purif. 31:140-148 (2003), which is hereby incorporated by reference in its entirety). A plasmid encoding mouse GAC (residues 128-603) was cloned into the pET28a vector and the protein was expressed with an N-terminal histidine (His)-tag. The tag was cleaved using thrombin and the protein was further purified by anion-exchange and gel-filtration chromatography. […] The reaction mixture was incubated at room temperature for 45 minutes and the absorbance at 340 nm was recorded for each sample against a water blank. The absorbance of the sample with just the cocktail mixture was subtracted from each reading to calculate the activity of the enzyme.

In assay [2] the test system is NIH 3T3 cells expressing oncogenic Dbl. Briefly: Dbl-induced cellular transformation (focus formation, growth in low serum, soft agar). Format: cell-based, mouse. Particulars: focus formation / growth in low serum. The method, then:
FIGS. 1A-E illustrate that the small molecule 968 inhibits cellular transformation. […] Cells were fixed and stained with crystal violet for counting of foci. Right: 968 was serially diluted (10, 5, 2.5, and 1.25 μM) and evaluated for its ability to inhibit focus formation. […] After 6 days, the cells were counted. 100% represents the number of Dbl-transformed cells counted in the absence of 968 (27.5×10^4 cells). Data represent the average of 3 experiments (±s.d.). […] At the indicated times, the cells were counted. Data represent the average of 3 experiments (±s.d.).
FIGS. 2A-G illustrate effects of 968 on the transforming activity of constitutively active Rho GTPases and human breast cancer cells. […] Cells were scored after 14 days and plotted as the percentage of the total number of colonies greater than 50 μm in diameter. Data represent the average of 3 experiments (±s.d.). […] Data represent the average of 3 experiments (±s.d.). […] Data represent the average of 3 experiments (±s.d.). […] After 24 hours at 37° C., the migratory cells were fixed, stained with GIEMSA, and counted. Data represent the average of 3 experiments (±s.d.). […] Data represent the average of 3 experiments (±s.d.). […] Data represent the average of 3 experiments (±s.d.). […] Data represent the average of 3 experiments (±s.d.).
FIGS. 5A-C illustrate comparative abilities of 968 and other benzo[a]phenanthridinones to inhibit the transforming activity of oncogenic Dbl and H-Ras. […] Histograms show the relative levels of Dbl-induced focus formation for the different treatments, compared to Dbl-induced focus formation measured in the presence of DMSO (i.e. solvent control). Data represent the average of 3 experiments (mean±s.d.). […] Histograms show the relative levels of Ras(G12V)-induced focus formation measured for the different treatments, compared to Ras(G12V)-induced focus formation measured in the presence of DMSO (solvent control). Data represent the average of 3 experiments (mean±s.d.). FIG. 5C NIH 3T3 cells stably expressing H-Ras(G12V) that were cultured in DMEM supplemented with 1% calf serum, with the indicated amounts of 968. After 6 days, cells are trypsinized and counted. 100% represents the number of cells counted in the absence of 968, i.e. 26×10^4 cells. Data represent the average of 3 experiments (mean±s.d.).

For `CC1(C)CC(=O)C2=C(C1)c1c(ccc3ccccc13)NC2c1cccc(Br)c1` (centres unmarked) [Compound 335], the “inhibition of enzymatic activity of purified mouse GAC” value in assay [1] is “little ability to inhibit enzyme activity”. Further, the “blocking of Dbl-induced transformation” value in assay [2] is recorded as “little or no inhibition; also recorded: less effective at blocking Dbl-transformation”.
